Measured values as given in BindingDB's records for doi:10.1021/jm0510530 (Universit&#224, 2006).

Legend:
[1] = Vasodilator activity assessed as ability to relax phenylephrine-induced contraction of Wistar rat aortic strips in presence of 1 uM ODQ
[2] = Vasodilator activity assessed as ability to relax phenylephrine-induced contraction of Wistar rat aortic strips

Row | Compound | EC50 [1] [nM] | EC50 [2] [nM]
1 | Cc1c(C)c2c(c(C)c1O)CCC(C)(COCCCO[N+](=O)[O-])O2 (centres undefined) [2,5,7,8-Tetramethyl-2-(3-nitrooxy-propoxymethyl)-chroman-6-ol] | 10000 | 1200
2 | CC(C)(C)c1cc(CCCO[N+](=O)[O-])cc(C(C)(C)C)c1O [2,6-Di-tert-butyl-4-(3-nitrooxy-propyl)-phenol] | – | 40000
3 | Cc1c(C)c2c(c(C)c1O)CCC(C)(COc1no[n+]([O-])c1S(=O)(=O)c1ccccc1)O2 (centres undefined) [2-(4-Benzenesulfonyl-5-oxy-furazan-3-yloxymethyl)-2,5,7,8-tetramethyl-chroman-6-ol] | 670 | 44
4 | COc1cc(CCCO[N+](=O)[O-])cc(OC)c1O [3-(4-hydroxy-3,5-dimethoxyphenyl)propyl nitrate] | – | 4300
5 | CC(C)(C)c1cc(CCCOc2no[n+]([O-])c2S(=O)(=O)c2ccccc2)cc(C(C)(C)C)c1O [4-(3-(3-benzenesulfonylfuroxan-4-yloxy)propyl)-2,6-di-tertbutylphenol] | 4800 | 110
6 | COc1cc(CCCOc2no[n+]([O-])c2S(=O)(=O)c2ccccc2)cc(OC)c1O [4-(3-(3-benzenesulfonylfuroxan-4-yloxy)propyl)-2,6-dimethoxyphenol] | 500 | 22
7 | O=S(=O)(c1ccccc1)c1c(OCCCc2ccc(O)cc2)no[n+]1[O-] [4-(3-(3-benzenesulfonylfuroxan-4-yloxy)propyl)phenol] | 360 | 12
8 | O=[N+]([O-])OCCCc1ccc(O)cc1 [4-(3-Nitrooxy-propyl)-phenol] | – | 1000
9 | CN(CCCc1cc(C(C)(C)C)c(O)c(C(C)(C)C)c1)Cc1no[n+]([O-])c1C(N)=O [4-((N-(3-(3,5-di-tert-butyl-4-hydroxyphenyl)propyl)-N-methylamino)methyl)furoxan-3-carboxamide] | 7400 | 410
10 | Cc1c(C)c2c(c(C)c1O)CCC(C)(CN(C)Cc1no[n+]([O-])c1C(N)=O)O2 (centres undefined) [4-((N-((6-hydroxy-2,5,7,8-tetramethylchroman-2-yl)methyl)-N-methylamino)methyl)furoxan-3-carboxamide] | 19000 | 1500
11 | CN(C)Cc1no[n+]([O-])c1C(N)=O [4-dimethylaminomethyl-2-oxy-furazan-3-carboxylic acid amide] | – | 3100
12 | NC(=O)c1c(CO)no[n+]1[O-] [4-hydroxymethyl-2-oxy-furazan-3-carboxylic acid amide] | – | 6300
